# Active and inactive are the calls of the source.
# Key:
# Cytochrome P450 3A4 = Cytochrome P450 3A4 (Homo sapiens, UniProt P08684); conditions: Potency;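 note: confirmatory qHTS run detecting inhibitors and substrates of CYP3A4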
# Leucine aminopeptidase = target: T1, Leucine aminopeptidase (Plasmodium falciparum 3D7, UniProt Q8IL11); experiment: P. falciparum M17LAP inhibitors, primary screen, biochemical, fluorogenic H-Leu-NHMec substrate, 1536-well (AID 1619); assay type: functional
# T1 sequence (Q8IL11 whole entry): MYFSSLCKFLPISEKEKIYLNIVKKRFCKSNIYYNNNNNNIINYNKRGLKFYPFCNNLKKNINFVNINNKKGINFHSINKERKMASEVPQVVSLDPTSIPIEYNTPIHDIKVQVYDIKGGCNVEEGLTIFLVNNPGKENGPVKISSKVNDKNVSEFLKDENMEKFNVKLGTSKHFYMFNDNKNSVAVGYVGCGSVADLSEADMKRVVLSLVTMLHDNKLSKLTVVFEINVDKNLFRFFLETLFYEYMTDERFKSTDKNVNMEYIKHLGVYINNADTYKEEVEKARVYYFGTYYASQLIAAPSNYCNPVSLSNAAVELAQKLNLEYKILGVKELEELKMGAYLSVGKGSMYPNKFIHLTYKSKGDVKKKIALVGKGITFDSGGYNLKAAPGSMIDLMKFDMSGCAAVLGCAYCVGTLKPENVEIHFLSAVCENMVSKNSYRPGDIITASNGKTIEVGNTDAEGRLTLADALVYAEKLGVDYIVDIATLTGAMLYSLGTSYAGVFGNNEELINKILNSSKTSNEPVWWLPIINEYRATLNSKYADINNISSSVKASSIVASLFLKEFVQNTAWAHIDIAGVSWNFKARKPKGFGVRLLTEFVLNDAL
# cells [1] = assay type: functional, cell-based
# cells [2] = assay type: functional, cell-based; remark: listed apart in the source
# [3] = target: T2, Mannose-6-phosphate isomerase (Homo sapiens, UniProt P34949); experiment: human PMI inhibitors, high substrate, primary screen, biochemical, fluorescence intensity, high mannose 6-phosphate (AID 1220)
# T2 sequence (P34949 whole entry): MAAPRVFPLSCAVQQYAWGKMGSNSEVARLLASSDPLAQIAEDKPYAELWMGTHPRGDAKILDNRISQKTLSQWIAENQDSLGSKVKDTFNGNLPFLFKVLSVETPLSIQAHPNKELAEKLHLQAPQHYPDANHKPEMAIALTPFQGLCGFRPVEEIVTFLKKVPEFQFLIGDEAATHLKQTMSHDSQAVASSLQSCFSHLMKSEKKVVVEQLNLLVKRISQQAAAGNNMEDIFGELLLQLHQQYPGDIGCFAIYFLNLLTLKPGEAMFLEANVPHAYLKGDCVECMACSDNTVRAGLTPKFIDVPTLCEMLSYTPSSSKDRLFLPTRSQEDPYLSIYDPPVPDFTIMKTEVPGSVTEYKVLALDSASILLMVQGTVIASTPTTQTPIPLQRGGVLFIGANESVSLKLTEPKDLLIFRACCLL
# [4] = target: T3, Replicative DNA helicase DnaB (Mycobacterium tuberculosis, UniProt P9WMR3); experiment: DnaB intein splicing inhibitors, dose response, biochemical, cell-free fluorescence (AID 449749); assay type: functional
# T3 sequence (P9WMR3 whole entry): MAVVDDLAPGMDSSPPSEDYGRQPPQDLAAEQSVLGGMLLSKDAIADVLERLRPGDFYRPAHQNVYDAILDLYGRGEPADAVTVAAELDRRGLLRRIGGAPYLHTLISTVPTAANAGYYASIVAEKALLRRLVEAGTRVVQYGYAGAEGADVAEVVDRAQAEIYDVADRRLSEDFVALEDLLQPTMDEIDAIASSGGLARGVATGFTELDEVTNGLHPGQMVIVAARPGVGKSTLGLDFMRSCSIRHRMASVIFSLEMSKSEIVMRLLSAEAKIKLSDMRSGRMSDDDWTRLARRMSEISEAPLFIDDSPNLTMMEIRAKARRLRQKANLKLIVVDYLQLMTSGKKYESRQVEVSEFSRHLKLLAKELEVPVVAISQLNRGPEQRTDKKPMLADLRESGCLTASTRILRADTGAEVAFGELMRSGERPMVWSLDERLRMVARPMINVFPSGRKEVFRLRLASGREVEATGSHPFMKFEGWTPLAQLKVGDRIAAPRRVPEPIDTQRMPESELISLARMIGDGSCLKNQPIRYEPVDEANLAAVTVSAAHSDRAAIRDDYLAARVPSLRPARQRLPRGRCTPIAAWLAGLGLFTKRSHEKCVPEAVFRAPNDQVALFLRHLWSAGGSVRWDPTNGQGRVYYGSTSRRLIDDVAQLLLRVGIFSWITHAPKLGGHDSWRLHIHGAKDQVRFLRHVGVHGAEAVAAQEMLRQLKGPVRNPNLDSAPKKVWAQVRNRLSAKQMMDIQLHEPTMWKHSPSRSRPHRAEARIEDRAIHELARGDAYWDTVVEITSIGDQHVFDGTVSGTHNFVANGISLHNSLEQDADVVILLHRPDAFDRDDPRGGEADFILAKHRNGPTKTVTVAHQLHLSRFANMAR
# Protein RecA = target: T4, Protein RecA (Mycobacterium tuberculosis, UniProt P9WHJ3); experiment: Fluorescence Cell-Free Homogeneous Dose Retest to Identify Inhibitors of RecA-Intein Splicing Activity. [Related pubchem assays (depositor defined):AID2097, AID2223, AID489010, AID492950]; assay type: functional
# T4 sequence (P9WHJ3 whole entry): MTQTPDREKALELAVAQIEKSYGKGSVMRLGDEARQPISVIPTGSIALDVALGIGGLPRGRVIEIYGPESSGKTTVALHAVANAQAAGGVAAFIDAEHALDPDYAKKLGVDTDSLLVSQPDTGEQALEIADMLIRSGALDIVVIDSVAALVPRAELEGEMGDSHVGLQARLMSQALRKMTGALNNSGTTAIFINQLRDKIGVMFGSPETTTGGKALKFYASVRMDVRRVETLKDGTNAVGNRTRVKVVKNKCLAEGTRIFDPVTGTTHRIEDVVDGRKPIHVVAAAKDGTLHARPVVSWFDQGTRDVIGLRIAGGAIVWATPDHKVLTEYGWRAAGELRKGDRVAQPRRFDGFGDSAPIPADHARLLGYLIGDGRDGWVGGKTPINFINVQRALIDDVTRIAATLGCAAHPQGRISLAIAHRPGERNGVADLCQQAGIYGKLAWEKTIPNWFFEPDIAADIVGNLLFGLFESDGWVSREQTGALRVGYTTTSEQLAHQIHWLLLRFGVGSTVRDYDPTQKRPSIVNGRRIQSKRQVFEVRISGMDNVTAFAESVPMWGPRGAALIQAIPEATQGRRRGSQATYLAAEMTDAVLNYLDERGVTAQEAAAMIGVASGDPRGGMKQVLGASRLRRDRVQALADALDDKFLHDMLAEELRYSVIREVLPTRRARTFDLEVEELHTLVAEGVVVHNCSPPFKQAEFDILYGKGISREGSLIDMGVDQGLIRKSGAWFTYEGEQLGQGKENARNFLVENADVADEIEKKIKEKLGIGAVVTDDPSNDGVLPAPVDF
# Genome polyprotein = Genome polyprotein (dengue virus type 2, UniProt P29990); experiment: Dengue-2 NS5 methyltransferase inhibitors, primary screen, biochemical, confirmation dose response (AID 588689); assay type: functional
# Chain of Genome polyprotein (P29990 2492-3391 limits assumed): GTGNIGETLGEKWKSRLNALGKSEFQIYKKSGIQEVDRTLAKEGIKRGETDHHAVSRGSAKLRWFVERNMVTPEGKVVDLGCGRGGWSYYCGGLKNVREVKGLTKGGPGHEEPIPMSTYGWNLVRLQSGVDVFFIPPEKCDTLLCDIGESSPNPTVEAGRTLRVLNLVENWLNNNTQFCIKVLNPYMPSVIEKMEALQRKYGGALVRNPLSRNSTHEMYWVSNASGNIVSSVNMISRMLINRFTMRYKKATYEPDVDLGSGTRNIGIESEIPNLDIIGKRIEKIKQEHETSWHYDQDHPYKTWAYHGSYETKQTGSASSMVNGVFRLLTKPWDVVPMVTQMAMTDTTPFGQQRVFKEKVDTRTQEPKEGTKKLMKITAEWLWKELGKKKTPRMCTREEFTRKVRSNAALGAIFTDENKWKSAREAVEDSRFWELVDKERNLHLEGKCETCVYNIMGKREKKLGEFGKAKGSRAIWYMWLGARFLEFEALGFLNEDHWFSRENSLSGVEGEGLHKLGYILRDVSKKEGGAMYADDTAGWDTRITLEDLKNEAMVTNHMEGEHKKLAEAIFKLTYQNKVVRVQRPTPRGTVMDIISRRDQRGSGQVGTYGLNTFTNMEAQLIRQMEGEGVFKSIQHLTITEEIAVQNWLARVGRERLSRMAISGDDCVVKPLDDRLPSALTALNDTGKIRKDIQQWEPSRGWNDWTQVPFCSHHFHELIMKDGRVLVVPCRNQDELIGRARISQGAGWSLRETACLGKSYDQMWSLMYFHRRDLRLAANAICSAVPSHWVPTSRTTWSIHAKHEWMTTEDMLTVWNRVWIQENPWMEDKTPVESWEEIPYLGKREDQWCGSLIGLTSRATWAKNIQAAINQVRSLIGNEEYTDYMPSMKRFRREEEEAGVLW
# H9c2 = experiment: cells; assay type: functional, cell-based; conditions: Rattus norvegicus, H9c2, Myocardium;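 note: confirmatory concentration-response retest of ultra-high-throughput screening hits for modulation of myocardial damage; cell death induced by hydrogen peroxide oxidative stress; compound pretreatment for 60 min then peroxide exposure for 2 h; potency is for protecting the cells against peroxide damage rather than for killing them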
# [5] = inhibitors of intracellular T. cruzi replication, confirmation, NIH3T3 host cells, beta-gal luminescence (AID 2044); assay type: functional, cell-based;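 note: intracellular parasites grown in NIH/3T3 mouse fibroblasts as host cells; luminescent beta-galactosidase reporter signal from transgenic T. cruzi replicating inside host cells; inhibitors lower the luminescence signal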
# [6] = cytotoxicity toward NIH3T3 fibroblasts, dose response, counter-screen, cell-based, ATP luminescence, mouse fibroblasts (AID 2010); assay type: functional;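 note: cells exposed to compound for about 90 hours before reading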
# INS1 = experiment: beta cell apoptosis inhibitors, cytokine rescue, dose response, luminescence, retest (AID 449756); assay type: functional, cell-based; conditions: Rattus norvegicus;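 note: cell death triggered by IL-1 beta plus TNF-alpha plus IFN-gamma mixture; protective hits raise ATP signal compared with cytokine alone wells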
# [7] = target: T5, Ubiquitin-conjugating enzyme E2 N (Homo sapiens, UniProt P61088); assay type: functional;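 note: Dose-response confirmation in a TR-FRET assay detecting UBC13-driven polyubiquitin chain formation, inhibition measured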
# T5 sequence (P61088 whole entry): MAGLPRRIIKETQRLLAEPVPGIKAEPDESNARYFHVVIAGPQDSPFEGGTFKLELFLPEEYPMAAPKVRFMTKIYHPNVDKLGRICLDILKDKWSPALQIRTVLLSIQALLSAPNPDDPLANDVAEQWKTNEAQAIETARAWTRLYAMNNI
# cells [8] = assay type: functional, cell-based; remark: listed apart in the source
# [9] = target: T6, Trace amine-associated receptor 1 (Homo sapiens, UniProt Q96RJ0); experiment: Fluorescence-based cell-based high throughput dose response assay to identify agonists of the human trace amine associated receptor 1 (TAAR1).; assay type: functional
# T6 sequence (Q96RJ0 whole entry): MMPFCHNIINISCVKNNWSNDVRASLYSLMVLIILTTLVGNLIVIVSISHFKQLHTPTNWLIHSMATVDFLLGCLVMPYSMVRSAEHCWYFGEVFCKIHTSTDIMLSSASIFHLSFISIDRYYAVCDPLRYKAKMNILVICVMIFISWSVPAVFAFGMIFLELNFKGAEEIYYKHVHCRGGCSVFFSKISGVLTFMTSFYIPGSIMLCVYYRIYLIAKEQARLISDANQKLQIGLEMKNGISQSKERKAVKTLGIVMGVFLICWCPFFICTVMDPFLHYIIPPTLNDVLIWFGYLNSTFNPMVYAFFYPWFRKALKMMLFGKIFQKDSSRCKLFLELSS
# [10] = target: T6, Trace amine-associated receptor 1; experiment: Counterscreen for agonists of the human trace amine associated receptor 1 (hTAAR1): Fluorescence-based cell-based high throughput dose response assay to identify hTAAR1 agonist that also desensitize TAAR1 receptor response.; assay type: functional
# cells [11] = assay type: functional, cell-based; remark: listed apart in the source
# [12] = Luminescence Cell-Based Dose Confirmation HTS to Identify Activators of 5'UTR Stem-Loop Driven Alpha-Synuclein mRNA Translation in H4 Neuroglioblastoma Cells. [Related pubchem assays: 1829 (Project Summary), 1814 (Primary HTS)]; assay type: functional
# [13] = Luminescence Cell-Based Dose Response HTS to Identify Activators of Luciferase Translation or Activity in H4 […] Cells. [Related pubchem assays: 1829 (Project Summary), 1814 (Primary HTS)]; assay type: functional
# H4 = experiment: Luminescence Cell-Based Dose Response HTS to Identify Activators of 5'UTR Stem-Loop Driven Prion Protein mRNA Translation in H4 Neuroglioblastoma Cells. [Related pubchem assays: 1829 (Project Summary), 1814 (Primary HTS)]; assay type: functional; conditions: Homo sapiens
# [14] = target: Luciferin 4-monooxygenase (Photinus pyralis, UniProt P08659); experiment: firefly luciferase enzyme inhibitors, dose response, biochemical, luminescence (AID 1891)
# Chain of Luciferin 4-monooxygenase (P08659 whole entry): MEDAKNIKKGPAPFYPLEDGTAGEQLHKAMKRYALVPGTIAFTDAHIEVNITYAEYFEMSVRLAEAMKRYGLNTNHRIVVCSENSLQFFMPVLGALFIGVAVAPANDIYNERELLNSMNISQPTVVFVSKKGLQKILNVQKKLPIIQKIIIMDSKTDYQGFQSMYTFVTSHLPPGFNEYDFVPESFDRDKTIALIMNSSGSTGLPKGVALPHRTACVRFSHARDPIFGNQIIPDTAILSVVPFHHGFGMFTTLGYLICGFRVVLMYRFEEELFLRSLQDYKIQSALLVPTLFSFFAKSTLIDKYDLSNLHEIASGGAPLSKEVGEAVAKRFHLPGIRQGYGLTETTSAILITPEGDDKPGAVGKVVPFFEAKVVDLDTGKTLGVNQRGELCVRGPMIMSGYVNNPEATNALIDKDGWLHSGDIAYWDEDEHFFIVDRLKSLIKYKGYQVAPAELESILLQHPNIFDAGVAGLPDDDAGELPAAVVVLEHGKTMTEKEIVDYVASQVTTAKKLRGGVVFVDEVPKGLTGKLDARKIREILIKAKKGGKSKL
# [15] = Luminescence Cell-Based Dose Confirmation HTS to Identify Inhibitors of Platelet Dense Granule Release. [Related pubchem assays: 1663 (Primary HTS), 1678 (Summary of Project)]; assay type: functional
# Chain of Cytochrome P450 3A4 (P08684 whole entry): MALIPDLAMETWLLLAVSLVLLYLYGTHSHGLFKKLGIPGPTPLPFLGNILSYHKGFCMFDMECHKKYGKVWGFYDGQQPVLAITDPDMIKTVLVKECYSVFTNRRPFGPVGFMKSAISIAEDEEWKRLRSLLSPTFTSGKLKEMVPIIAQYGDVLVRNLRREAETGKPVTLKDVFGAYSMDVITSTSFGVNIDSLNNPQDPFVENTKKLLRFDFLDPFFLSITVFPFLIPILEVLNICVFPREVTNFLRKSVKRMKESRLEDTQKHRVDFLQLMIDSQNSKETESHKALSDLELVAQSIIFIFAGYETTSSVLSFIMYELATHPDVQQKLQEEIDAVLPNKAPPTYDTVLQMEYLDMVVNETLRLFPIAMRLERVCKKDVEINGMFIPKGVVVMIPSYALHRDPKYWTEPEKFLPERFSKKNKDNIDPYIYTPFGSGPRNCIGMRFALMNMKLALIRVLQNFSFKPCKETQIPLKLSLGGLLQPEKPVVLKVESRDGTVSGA
compound,measurement,setting,value
"COc1ccc(-c2coc3cc(OC)cc(OC)c3c2=O)cc1 [BIOCHANIN A, DIMETHYL ETHER]",AC50,Cytochrome P450 3A4,20 µM (inconclusive)
CCNC(=O)NC(=O)C(C)Sc1ccc2c(c1)OCCO2 (stereo not given),IC50,Leucine aminopeptidase,7.93 µM (active)
CCCCC#CC1C=CC(Oc2cc(OC)c(OC)c(OC)c2)C(CO)O1 (stereo not given),AC50,Cytochrome P450 3A4,5.01 µM (inconclusive)
O=C1OCc2cc(NC(=O)C34CC5CC(CC(C5)C3)C4)ccc21,EC50,cells [1],> 350 µM (not active)
same,EC50,cells [2],> 350 µM (not active)
CC(C)c1c(O)ccc2c1CCC1C(C)(C)CCC[C@@]21C (stereo not given in full),AC50,Cytochrome P450 3A4,25.1 µM (inconclusive)
COc1ccc2cc3cc(C(=O)N4CCN(c5ccccn5)CC4)oc3nc2c1,EC50,cells [1],> 350 µM (not active)
same,EC50,cells [2],> 350 µM (not active)
CC(C)NC(=O)c1cc(C(=O)c2cc(Cl)ccc2O)coc1=N,IC50,Leucine aminopeptidase,2.15 µM (active)
O=C(O)c1ccc(COc2ccc3ccccc3c2/C=C2/NC(=O)N(c3ccccc3)C2=O)cc1,IC50,Leucine aminopeptidase,24.6 µM (active)
Fc1ccc(CSc2ccc(-c3ccco3)nn2)cc1,EC50,cells [1],> 350 µM (not active)
same,EC50,cells [2],7.7 µM (active)
S=C=Nc1cccc2ccccc12 [1-NAPHTHYLISOTHIOCYANATE],AC50,Cytochrome P450 3A4,25.1 µM (inconclusive)
O=C(O)CC1S/C(=N/N=C/c2ccc(-c3ccccc3[N+](=O)[O-])o2)NC1=O (stereo not given),IC50,[3],> 50 µM (not active)
same,AC50,[4],12.1 µM (active)
same,EC50,Protein RecA,4.31 µM (active)
same,IC50,Genome polyprotein,89 µM (active)
Cc1cc(O)c(C(C)(C)C)cc1Sc1cc(C(C)(C)C)c(O)cc1C,AC50,Cytochrome P450 3A4,3.98 µM (inconclusive)
CCOc1ccc(NC(=O)C2CCN(S(=O)(=O)c3ccc4c(c3)N(C(C)=O)CCO4)CC2)cc1,EC50,cells [1],> 350 µM (not active)
same,EC50,cells [2],> 350 µM (not active)
C=CCN1CC[C@]23c4c5ccc(O)c4O[C@H]2/C(=N/NC(=O)c2ccccc2)CC[C@@]3(O)[C@H]1C5 [NALOXONE BENZOYLHYDRAZONE],AC50,Cytochrome P450 3A4,15.8 µM (inconclusive)
N#Cc1cccc(NC(=O)CN2NS(=O)(=O)c3ccccc3C2=O)c1,IC50,Leucine aminopeptidase,14.9 µM (active)
CCC(=O)OCCNc1cc(SCCC(=O)OC)c2nonc2c1[N+](=O)[O-],IC50,[3],> 50 µM (not active)
same,AC50,[4],116 µM (active)
same,EC50,Protein RecA,5.12 µM (active)
same,IC50,H9c2,14.5 µM (active)
O=C(N/N=C/c1cc([N+](=O)[O-])ccc1O)c1cccc2ccccc12,EC50,cells [1],20.3 µM (active)
same,EC50,[5],2.36 µM (active)
same,EC50,cells [2],> 350 µM (not active)
same,EC50,[6],> 60 µM (not active)
same,AC50,INS1,4.2 µM (active)
COC(=O)C1=C(C(=O)OC)SC(=C2C(=S)C(C)(C)N(C(=O)C(C)C)c3ccccc32)S1,IC50,[3],7.38 µM (active)
CCOc1cc2c(C#N)c(N3CCNCC3)nc(N)c2c(N)n1,IC50,[3],> 50 µM (not active)
same,IC50,[7],> 20 µM (inactive)
same,IC50,cells [8],> 29.9 µM (inactive)
same,EC50,[9],5.69 µM (active)
same,IC50,[10],8.23 µM (active)
same,EC50,cells [11],> 29.9 µM (inactive)
Cc1cc(O)nc(N=N/C(=N/Nc2ccc(O)cc2)c2ccccc2)n1,EC50,[12],11.6 µM (active)
same,EC50,[13],13.1 µM (active)
same,EC50,cells [1],102 µM (active)
same,EC50,H4,16.4 µM (active)
same,EC50,[14],0.763 µM (active)
same,EC50,[15],4.42 µM (active)
same,EC50,cells [2],8.27 µM (active)
